Measurements: PubChem BioAssay AID248 (DTP/NCI, 2004)
“And” between values parts separate entries of the source, which are not always exact repeats. Equal values may be shown once. Toxic doses and inconclusive results are not listed. Cut-off read from the data, not from the text of the source: active = T/C of 150% or more; inactive = T/C below 125%.

Tested on: L1210 leukemia ip in BDF1 mice, survival T/C
Assay: NCI In Vivo Anticancer Drug Screen. Data for tumor model L1210 Leukemia (intraperitoneal) in B6D2F1 (BDF1) mice
Settings: endpoint: mean survival time, higher = longer survival
In short: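 Ratio derived from survival: compound-dosed mice over vehicle-dosed mice, all bearing a transplantable tumor.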

[1] = dose: 100.0 mg/kg/injection, schedule: Q01DX009 (ip), vehicle: saline
[2] = dose: 200.0 mg/kg/injection, schedule: Q01DX009 (ip), vehicle: saline
[3] = dose: 100.0 mg/kg/injection, schedule: Q04DX002 (ip), vehicle: saline with Tween-80
[4] = dose: 200.0 mg/kg/injection, schedule: Q04DX002 (ip), vehicle: saline with Tween-80
[5] = dose: 400.0 mg/kg/injection, schedule: Q04DX002 (ip), vehicle: saline with Tween-80
[6] = dose: 100.0 mg/kg/injection, schedule: Q04DX003 (ip), vehicle: Klucel (hydroxypropylcellulose) (HPC)
[7] = dose: 200.0 mg/kg/injection, schedule: Q04DX003 (ip), vehicle: Klucel (hydroxypropylcellulose) (HPC)
[8] = dose: 400.0 mg/kg/injection, schedule: Q04DX003 (ip), vehicle: Klucel (hydroxypropylcellulose) (HPC)
[9] = dose: 100.0 mg/kg/injection, schedule: Q01DX001 (ip), vehicle: saline
[10] = dose: 200.0 mg/kg/injection, schedule: Q01DX001 (ip), vehicle: saline
[11] = dose: 400.0 mg/kg/injection, schedule: Q01DX001 (ip), vehicle: saline
[12] = dose: 100.0 mg/kg/injection, schedule: Q04DX003 (ip), vehicle: saline with Tween-80
[13] = dose: 200.0 mg/kg/injection, schedule: Q04DX003 (ip), vehicle: saline with Tween-80
[14] = dose: 400.0 mg/kg/injection, schedule: Q04DX003 (ip), vehicle: saline with Tween-80
[15] = dose: 100.0 mg/kg/injection, schedule: Q01DX009 (ip), vehicle: Klucel (hydroxypropylcellulose) (HPC)
[16] = dose: 200.0 mg/kg/injection, schedule: Q01DX009 (ip), vehicle: Klucel (hydroxypropylcellulose) (HPC)
[17] = dose: 400.0 mg/kg/injection, schedule: Q01DX009 (ip), vehicle: Klucel (hydroxypropylcellulose) (HPC)
[18] = dose: 100.0 mg/kg/injection, schedule: Q01DX009 (ip), vehicle: saline with Tween-80
[19] = dose: 200.0 mg/kg/injection, schedule: Q01DX009 (ip), vehicle: saline with Tween-80
[20] = dose: 400.0 mg/kg/injection, schedule: Q01DX009 (ip), vehicle: saline with Tween-80

Measured: T/C

CC(=O)Nc1nc(Cl)c2ncn(C3CC(OC(=O)c4ccc(C)cc4)C(COC(=O)c4ccc(C)cc4)O3)c2n1 (stereo not drawn)
inactive: dose: 100.0 mg/kg/injection, schedule: Q01DX005 (ip), vehicle: saline 109 % of control and 114 % of control | [1] 102 % of control | dose: 200.0 mg/kg/injection, schedule: Q01DX005 (ip), vehicle: saline 103 % of control and 104 % of control | [2] 102 % of control | dose: 400.0 mg/kg/injection, schedule: Q01DX009 (ip), vehicle: saline 107 % of control

C[C@]12CC[C@@H](O)C[C@H]1CC[C@@H]1[C@@H]2CC[C@]2(C)C(=O)CC[C@@H]12
inactive: dose: 100.0 mg/kg/injection, schedule: Q01DX001 (sc), vehicle: steriod suspending solution 101 % of control | [3] 100 % of control | dose: 200.0 mg/kg/injection, schedule: Q01DX001 (sc), vehicle: steriod suspending solution 95 % of control | [4] 96 % of control | dose: 400.0 mg/kg/injection, schedule: Q01DX001 (sc), vehicle: steriod suspending solution 95 % of control | [5] 100 % of control

COc1ccc(OC)c(C(=O)CCCCCCCCC(=O)c2cc(OC)ccc2OC)c1
inactive: [6] 104 % of control | [7] 104 % of control | [8] 90 % of control

N=[N+]=CC(=O)CC(N)C(=O)O (stereo not drawn)
inactive: dose: 50.0 mg/kg/injection, schedule: Q01DX001 (ip), vehicle: saline 94 % of control | dose: 50.0 mg/kg/injection, schedule: Q01DX009 (ip), vehicle: saline 104 % of control | [9] 94 % of control | [1] 107 % of control | dose: 128.0 mg/kg/injection, schedule: Q03HX024 (ip), vehicle: saline 117 % of control | [10] 99 % of control | [2] 113 % of control | dose: 256.0 mg/kg/injection, schedule: Q04DX003 (ip), vehicle: saline 102 % of control | [11] 96 % of control | dose: 512.0 mg/kg/injection, schedule: Q04DX003 (ip), vehicle: saline 105 % of control | dose: 1024.0 mg/kg/injection, schedule: Q04DX003 (ip), vehicle: saline 108 % of control

CC(C)=NOC(=O)Nc1ccc2c(c1)OCO2
inactive: [12] 109 % of control | [13] 97 % of control | [14] 101 % of control

CC(=N)c1c(O)cc(C)oc1=O
inactive: [12] 108 % of control | [13] 101 % of control | [14] 92 % of control

O=C1c2cc3c(cc2CCC1N1CCOCC1)CCCC3 (stereo not drawn)
inactive: [12] 111 % of control | [13] 114 % of control

O=S(=O)(F)c1cc(Cl)ccc1CBr
inactive: dose: 25.0 mg/kg/injection, schedule: Q04DX002 (ip), vehicle: saline with Tween-80 96 % of control | dose: 50.0 mg/kg/injection, schedule: Q04DX002 (ip), vehicle: saline with Tween-80 100 % of control | [3] 93 % of control | [4] 104 % of control | [5] 101 % of control

CCCCCCCCCCCCCCCCCCSCCO
inactive: [6] 100 % of control and 90 % of control | [7] 102 % of control | [8] 92 % of control and 100 % of control

O=C(O)c1c(F)c(F)c(O)c(F)c1F
inactive: dose: 25.6 mg/kg/injection, schedule: Q04DX002 (ip), vehicle: saline with Tween-80 103 % of control | dose: 64.0 mg/kg/injection, schedule: Q04DX002 (ip), vehicle: saline with Tween-80 110 % of control | dose: 160.0 mg/kg/injection, schedule: Q04DX002 (ip), vehicle: saline with Tween-80 89 % of control | [5] 103 % of control

CCC[CH2][Sn]1([CH2]CCC)[O]C(=O)CCC(=O)[O]1
inactive: dose: 1.56 mg/kg/injection, schedule: Q01DX009 (ip), vehicle: Klucel (hydroxypropylcellulose) (HPC) 113 % of control | dose: 3.12 mg/kg/injection, schedule: Q01DX009 (ip), vehicle: Klucel (hydroxypropylcellulose) (HPC) 87 % of control

COc1ccc(CC2COC(O)C2Cc2ccc(OC3OC(CO)C(O)C(O)C3O)c(OC)c2)cc1OC (stereo not drawn)
inactive: dose: 100.0 mg/kg/injection, schedule: Q04DX002 (ip), vehicle: saline 102 % of control | dose: 200.0 mg/kg/injection, schedule: Q04DX002 (ip), vehicle: saline 112 % of control | dose: 400.0 mg/kg/injection, schedule: Q04DX002 (ip), vehicle: saline 87 % of control

Cn1c(=O)c2[nH]c(CCCSSCCCc3nc4c([nH]3)c(=O)n(C)c(=O)n4C)nc2n(C)c1=O
inactive: [9] 96 % of control | [10] 96 % of control | [11] 96 % of control

C/C(=N\N=C(N)N)c1cccs1
inactive: dose: 7.0 mg/kg/injection, schedule: Q01DX Z (oral), vehicle: carboxymethylcellulose (CMC) 101 % of control | dose: 15.0 mg/kg/injection, schedule: Q01DX Z (oral), vehicle: carboxymethylcellulose (CMC) 91 % of control

Cc1cc([N+](=O)[O-])c(N)c([N+](=O)[O-])c1
inactive: [15] 98 % of control | [6] 105 % of control | [16] 92 % of control | [7] 105 % of control | [17] 97 % of control | [8] 105 % of control

CCOC(=O)C(Br)(C(=O)OCC)C(c1ccccc1)c1ccccc1
inactive: [18] 98 % of control | [19] 96 % of control | [20] 93 % of control

O=C(O)CSc1ccc(NC(=O)NC2CCCCC2)cc1
inactive: [18] 96 % of control | dose: 100.0 mg/kg/injection, schedule: Q04DX003 (ip), vehicle: saline sonified 114 % of control | [19] 91 % of control | dose: 200.0 mg/kg/injection, schedule: Q04DX003 (ip), vehicle: saline sonified 89 % of control | [20] 88 % of control | dose: 400.0 mg/kg/injection, schedule: Q04DX003 (ip), vehicle: saline sonified 96 % of control

Cc1nc(Cl)c(C#N)c(C(F)(F)F)c1N
inactive: dose: 100.0 mg/kg/injection, schedule: Q01DX Z (ip), vehicle: carboxymethylcellulose (CMC) 95 % of control

c1ccc2c(c1)C[n+]1ccccc1-2
inactive: dose: 75.0 mg/kg/injection, schedule: Q01DX001 (ip), vehicle: other 102 % of control

Cc1ccc(S(=O)(=O)/N=S(/C)CC/S(C)=N/S(=O)(=O)c2ccc(C)cc2)cc1 (stereo not drawn)
inactive: [15] 102 % of control | [16] 105 % of control | [17] 100 % of control

CCSCCCCO
inactive: dose: 75.0 mg/kg/injection, schedule: Q01DX001 (ip), vehicle: saline 101 % of control | dose: 75.0 mg/kg/injection, schedule: Q01DX009 (ip), vehicle: saline 102 % of control | dose: 150.0 mg/kg/injection, schedule: Q01DX001 (ip), vehicle: saline 101 % of control | dose: 150.0 mg/kg/injection, schedule: Q01DX009 (ip), vehicle: saline 100 % of control | dose: 300.0 mg/kg/injection, schedule: Q01DX001 (ip), vehicle: saline 97 % of control

COC(=O)C(C)C1CCC2C3=CC=C4CC(OC(C)=O)CCC4(C)C3CCC21C (stereo not drawn)
inactive: dose: 100.0 mg/kg/injection, schedule: Q01DX001 (ip), vehicle: saline with Tween-80 93 % of control | dose: 200.0 mg/kg/injection, schedule: Q01DX001 (ip), vehicle: saline with Tween-80 98 % of control | dose: 400.0 mg/kg/injection, schedule: Q01DX001 (ip), vehicle: saline with Tween-80 104 % of control
